The supplement of paper PMC10307832

compound: COC1=CC=C(C=C1)COC2=C(C=C(C=C2)CC3=CN=C(N=C3N)N)OC [GW-2580]; assay: relative viability (nuclei count vs DMSO), 5 days (fraction); higher = more cells survive; conditions: 0.08 µM
Method in brief: (§1)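 MetaXpress counted nuclei in 4× images of lung cancer cell lines that had been fixed, permeabilised and Hoechst-stained in one step. Before that, cells in 1536-well plates were kept overnight at 37 °C, pinned with five √10-spaced library-drug doses on vehicle-anchored plates, and cultured 5 days without medium change. Viability takes treated-well nuclei over vehicle-well nuclei and uses the median across plates. Plates were accepted only at control CV below 25% and at least one doubling.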

Row | Cell Line | relative viability
1 | EPLC-272H | 0.995
2 | NCI-H2228 | 1.18
3 | NCI-H1792 | 0.939
4 | NCI-H1355 | 1.03
5 | NCI-H3122 | 1.03
6 | NCI-H1437 | 1
7 | NCI-H1755 | 1.06
8 | NCI-H2023 | 1.12
9 | HCC-15 | 1.08
10 | NCI-H1793 | 0.95
11 | PC-14 | 1.07
12 | EKVX | 0.962
13 | LC-2-ad | 1.04
14 | NCI-H1944 | 1
15 | NCI-H1975 | 1.04
16 | RERF-LC-KJ | 1.08
17 | NCI-H358 | 0.965
18 | NCI-H650 | 0.974
19 | PC-3 [JPC-3] | 1.12

same assay, conditions: 0.8 µM

Row | Cell Line | relative viability
20 | EPLC-272H | 1.15
21 | NCI-H2228 | 1.16
22 | NCI-H1792 | 1.18
23 | NCI-H1355 | 1.11
24 | NCI-H3122 | 1.09
25 | NCI-H1437 | 1.06
26 | NCI-H1755 | 1.07
27 | NCI-H2023 | 1.07
28 | HCC-15 | 1.19
29 | NCI-H1793 | 1.05
30 | PC-14 | 1.19
31 | EKVX | 1.22
32 | LC-2-ad | 1.14
33 | NCI-H1944 | 0.999
34 | NCI-H1975 | 1.12
35 | RERF-LC-KJ | 1.15
36 | NCI-H358 | 1.03
37 | NCI-H650 | 1.04
38 | PC-3 [JPC-3] | 1.14

same assay, conditions: 2.53 µM

Row | Cell Line | relative viability
39 | EPLC-272H | 0.763
40 | NCI-H2228 | 0.921
41 | NCI-H1792 | 0.92
42 | NCI-H1355 | 0.837
43 | NCI-H3122 | 1.06
44 | NCI-H1437 | 0.926
45 | NCI-H1755 | 0.944
46 | NCI-H2023 | 0.933
47 | HCC-15 | 0.98
48 | NCI-H1793 | 0.711
49 | PC-14 | 0.966
50 | EKVX | 0.81
51 | LC-2-ad | 1.01
52 | NCI-H1944 | 0.972
53 | NCI-H1975 | 0.935
54 | RERF-LC-KJ | 0.921
55 | NCI-H358 | 0.874
56 | NCI-H650 | 0.817
57 | PC-3 [JPC-3] | 1.09

same assay, conditions: 8 µM

Row | Cell Line | relative viability
58 | EPLC-272H | 0.891
59 | NCI-H2228 | 0.882
60 | NCI-H1792 | 0.842
61 | NCI-H1355 | 0.976
62 | NCI-H3122 | 1.01
63 | NCI-H1437 | 0.835
64 | NCI-H1755 | 0.878
65 | NCI-H2023 | 1.06
66 | HCC-15 | 1.02
67 | NCI-H1793 | 0.852
68 | PC-14 | 0.969
69 | EKVX | 0.941
70 | LC-2-ad | 0.988
71 | NCI-H1944 | 0.886
72 | NCI-H1975 | 0.87
73 | RERF-LC-KJ | 0.977
74 | NCI-H358 | 0.789
75 | NCI-H650 | 0.961
76 | PC-3 [JPC-3] | 0.964

compound: Cc1cnc(Nc2ccc(OCCN3CCCC3)cc2)nc1Nc1cccc(S(=O)(=O)NC(C)(C)C)c1 [Fedratinib]; assay: as above; conditions: 0.1 µM
Method in brief: as §1

Row | Cell Line | relative viability
77 | EPLC-272H | 0.921
78 | NCI-H2228 | 0.884
79 | NCI-H1792 | 0.835
80 | NCI-H1355 | 1
81 | NCI-H3122 | 1.05
82 | NCI-H1437 | 0.978
83 | NCI-H1755 | 0.991
84 | NCI-H2023 | 1.02
85 | HCC-15 | 0.869
86 | NCI-H1793 | 0.884
87 | PC-14 | 0.986
88 | EKVX | 1.06
89 | LC-2-ad | 0.983
90 | NCI-H1944 | 0.965
91 | NCI-H1975 | 0.933
92 | RERF-LC-KJ | 1.03
93 | NCI-H358 | 0.999
94 | NCI-H650 | 0.709
95 | PC-3 [JPC-3] | 0.987

same assay, conditions: 0.3162 µM

Row | Cell Line | relative viability
96 | EPLC-272H | 0.938
97 | NCI-H2228 | 0.785
98 | NCI-H1792 | 0.989
99 | NCI-H1355 | 0.993
100 | NCI-H3122 | 1.02
101 | NCI-H1437 | 0.982
102 | NCI-H1755 | 1
103 | NCI-H2023 | 0.962
104 | HCC-15 | 0.972
105 | NCI-H1793 | 0.886
106 | PC-14 | 1.09
107 | EKVX | 0.952
108 | LC-2-ad | 1.03
109 | NCI-H1944 | 1.01
110 | NCI-H1975 | 0.939
111 | RERF-LC-KJ | 1.04
112 | NCI-H358 | 0.911
113 | NCI-H650 | 0.892
114 | PC-3 [JPC-3] | 1.03

same assay, conditions: 1 µM

Row | Cell Line | relative viability
115 | EPLC-272H | 0.327
116 | NCI-H2228 | 0.723
117 | NCI-H1792 | 0.815
118 | NCI-H1355 | 0.904
119 | NCI-H3122 | 0.892
120 | NCI-H1437 | 0.926
121 | NCI-H1755 | 0.909
122 | NCI-H2023 | 0.754
123 | HCC-15 | 0.911
124 | NCI-H1793 | 0.619
125 | PC-14 | 0.906
126 | EKVX | 0.978
127 | LC-2-ad | 0.588
128 | NCI-H1944 | 0.909
129 | NCI-H1975 | 0.798
130 | RERF-LC-KJ | 0.917
131 | NCI-H358 | 0.884
132 | NCI-H650 | 0.418
133 | PC-3 [JPC-3] | 0.953

compound: COC1=CC=C(C=C1)COC2=C(C=C(C=C2)CC3=CN=C(N=C3N)N)OC [GW-2580] + CS(=O)(=O)N1CCN(Cc2cc3nc(-c4cccc5[nH]ncc45)nc(N4CCOCC4)c3s2)CC1 [Pictilisib] (partner 1 µM); assay: relative viability (nuclei count vs DMSO), 5 days (fraction); higher = more cells survive; conditions: first compound 0.08 µM
Method in brief: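 Nuclei were stained with Hoechst during a one-step fixation (final 0.05% Triton X-100, 1% formaldehyde, 1 ug/ml Hoechst) carried out 5 days after dosing, then counted on 4× images. The cells, lung cancer lines in 1536-well plates, had been dosed by pin tool the day after seeding with one drug alone or a fixed anchor-drug dose plus five library-drug doses (not always all listed) in √10 steps. Relative viability is the nuclei count in treated wells divided by that in vehicle wells, and each value is the median of duplicate plates.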

Row | Cell Line | relative viability
134 | EPLC-272H | 0.254
135 | NCI-H2228 | 0.425
136 | NCI-H1792 | 0.279
137 | NCI-H1355 | 0.476
138 | NCI-H3122 | 0.586
139 | NCI-H1437 | 0.465
140 | NCI-H1755 | 0.489
141 | NCI-H2023 | 0.241
142 | HCC-15 | 0.79
143 | NCI-H1793 | 0.312
144 | PC-14 | 0.909
145 | EKVX | 0.395
146 | LC-2-ad | 0.577
147 | NCI-H1944 | 0.35
148 | NCI-H1975 | 0.294
149 | RERF-LC-KJ | 0.553
150 | NCI-H358 | 0.356
151 | NCI-H650 | 0.786
152 | PC-3 [JPC-3] | 0.857

same assay, conditions: first compound 0.8 µM

Row | Cell Line | relative viability
153 | EPLC-272H | 0.36
154 | NCI-H2228 | 0.285
155 | NCI-H1792 | 0.272
156 | NCI-H1355 | 0.43
157 | NCI-H3122 | 0.611
158 | NCI-H1437 | 0.514
159 | NCI-H1755 | 0.461
160 | NCI-H2023 | 0.257
161 | HCC-15 | 0.824
162 | NCI-H1793 | 0.33
163 | PC-14 | 1.03
164 | EKVX | 0.448
165 | LC-2-ad | 0.502
166 | NCI-H1944 | 0.324
167 | NCI-H1975 | 0.325
168 | RERF-LC-KJ | 0.404
169 | NCI-H358 | 0.32
170 | NCI-H650 | 0.979
171 | PC-3 [JPC-3] | 0.798

same assay, conditions: first compound 2.53 µM

Row | Cell Line | relative viability
172 | EPLC-272H | 0.267
173 | NCI-H2228 | 0.327
174 | NCI-H1792 | 0.171
175 | NCI-H1355 | 0.274
176 | NCI-H3122 | 0.584
177 | NCI-H1437 | 0.378
178 | NCI-H1755 | 0.321
179 | NCI-H2023 | 0.217
180 | HCC-15 | 0.653
181 | NCI-H1793 | 0.216
182 | PC-14 | 0.781
183 | EKVX | 0.395
184 | LC-2-ad | 0.447
185 | NCI-H1944 | 0.343
186 | NCI-H1975 | 0.29
187 | RERF-LC-KJ | 0.478
188 | NCI-H358 | 0.28
189 | NCI-H650 | 0.71
